Each structure is given as a SMILES string. Where two headings read alike, the source gives them in different places.

What is called CC50 is the concentration giving 50% cytotoxicity.

One series relates to HIV-1 (IIIB). Briefly: Antiviral assay in MT-4 cells (HIV MT-4 antiviral assay). Format: cell-based. The settings on record: Human immunodeficiency virus 1, IIIB, MT4, 120 h, HIV-1 (IIIB) in MT-4 cells, 5 days incubation; read-out: EC50. The method in brief: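 MT-4 cells infected with HIV-1 IIIB (1:250 diluted stock) and exposed to 1:3 serially diluted compound in RPMI with 10% FBS. Viability read by CellTiter-Glo luminescence after 5 days at 37° C; mock-infected cells and 5 μM AZT as controls.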

Series [1] can be described thus: Cytotoxicity assay in MT-4 cells. Format: cell-based, human. To be noted: human, uninfected MT-4 cells, 5 days incubation; read-out: CC50. The method in brief: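 Infected MT-4 cells (HIV-1 IIIB, fresh 1:250 dilution of concentrated stock) or mock-infected cells exposed to compounds for 5 days at 37 °C. Viability by CellTiter-Glo luminescence; 5 μM AZT positive control, no-drug negative control. Uninfected cells used for cytotoxicity, with 10 μM puromycin as base-level cytotoxicity control.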

The test system of the next series is pLai RLuc reporter virus. The series can be described thus: microbe, parasite or virus in culture. Format: cell-based, HIV. To be noted: Human immunodeficiency virus 1, 72 h. The protocol: To quantify the amount of protein binding to human serum, compounds were serially diluted (1:3) in DMSO and acoustically transferred onto 384-well assay plates via a Labcyte ECHO robot. Each plate contained up to 8 test compounds, including negative and positive controls, (DMSO, 5 μM AZT respectively). Assay plates were prepared in duplicate, and tested in either CCM (cell culture media) or HS/CCM (human serum/cell culture media). MT-4 cells were first pre-infected with pLai RLuc reporter virus for 2 h at 37° C., then further diluted in either CCM (RPMI media, 10% FBS, 1% P/S) or HS/CCM (RPMI media, 10% FBS, 50% HS, 1% P/S), and subsequently added to each plate using a Biotek Micro Flow dispenser. After a 72-h incubation in a humidified and temperature controlled incubator (37° C.), Renilla Glo (Promega) was added to all assay plates and chemiluminescence read using an Envision plate-reader. […] To determine the amount of protein binding, EC50 fold shifts (or EC50 shifts) were calculated by dividing EC50 (HS/CCM)/EC50 (CCM).

Where [2] appears, read: read-out: Antiviral Serum Shift RLuc 50% HS, HS/CCM (RPMI media, 10% FBS, 50% HS, 1% P/S), 72-h incubation.
Where [3] appears, read: read-out: Antiviral Serum Shift RLuc CCM, CCM (RPMI media, 10% FBS, 1% P/S), 72-h incubation.

`O=C(NCc1c(F)cc(F)cc1F)c1cn2c(c(O)c1=O)C(=O)N1C[C@@H]2CCc2c(Cl)cccc21` [Example 45-1, (12S)-1-chloro-7-hydroxy-6,8-dioxo-N-(2,4,6-trifluorobenzyl)-6,8,13,14-tetrahydro-12H-5,12-methanobenzo[e]pyrido[1,2-a][1,4]diazonine-9-carboxamide]: the EC50 worked out at 1.66 nM in the series on HIV-1 (IIIB), 2.56 nM with pLai RLuc reporter virus (setting [2]) and 0.359 nM with pLai RLuc reporter virus (setting [3]). Moreover, the CC50 at 5 days in series [1] was found to be 6900 nM.
In the case of `O=C(NCc1ccc(F)c(Cl)c1F)c1cn2c(c(O)c1=O)C(=O)N1CCC=C(F)[C@H]2C1` (single isomer, unassigned) [Example 123-1], the EC50 was 2.05 nM with HIV-1 (IIIB), 3.67 nM in the series with pLai RLuc reporter virus (setting [2]) and 0.316 nM in the series on pLai RLuc reporter virus (setting [3]). In series [1], the CC50 at 5 days was 13700 nM.
For the molecule `C[C@]12CC=CCN(C1)C(=O)c1c(O)c(=O)c(C(=O)NCc3ccc(F)cc3F)cn12` [Example 168, (7S)—N-(2,4-difluorobenzyl)-12-hydroxy-7-methyl-1,11-dioxo-1,6,7,11-tetrahydro-3H-2,7-methanopyrido[1,2-a][1,4]diazonine-10-carboxamide], the EC50 with HIV-1 (IIIB) was determined as 1.75 nM; in the series on pLai RLuc reporter virus (setting [2]) it was 41.3 nM; in the series on pLai RLuc reporter virus (setting [3]), 0.187 nM. The CC50 at 5 days in series [1] came out at 13700 nM.
Taken in the same sequence, the figures for `O=C(NCc1ccc(F)cc1F)c1cn2c(c(O)c1=O)C(=O)N1CCCCC2C1` (racemic) [Example 25, N-(2,4-difluorobenzyl)-12-hydroxy-1,11-dioxo-1,4,5,6,7,11-hexahydro-3H-2,7-methanopyrido[1,2-a][1,4]diazonine-10-carboxamide] were 1.7 nM, 1.92 nM, 0.191 nM and 12600 nM.
Taken in the same sequence, the figures for `O=C(NCc1c(F)cc(F)cc1F)c1cn2c(c(O)c1=O)C(=O)N1C[C@H]2CCC(F)(F)C1` [Example 3-1, (7R)-4,4-difluoro-12-hydroxy-1,11-dioxo-N-(2,4,6-trifluorobenzyl)-1,4,5,6,7,11-hexahydro-3H-2,7-methanopyrido[1,2-a][1,4]diazonine-10-carboxamide] were 4.2 nM, 71.5 nM, 0.85 nM and > 40200 nM.
`O=C(NCc1cccc(F)c1F)c1cn2c(c(O)c1=O)C(=O)N1CCCC[C@H]2C1` [Example 160, (7S)—N-(2,3-difluorobenzyl)-12-hydroxy-1,11-dioxo-1,4,5,6,7,11-hexahydro-3H-2,7-methanopyrido[1,2-a][1,4]diazonine-10-carboxamide]: the figures for the EC50 in the series with HIV-1 (IIIB), in the series with pLai RLuc reporter virus (setting [2]) and with pLai RLuc reporter virus (setting [3]) were 1.52 nM, 1.19 nM and 0.368 nM, respectively. Moreover, the CC50 at 5 days in series [1] is 11400 nM.
In the same order, the values of `O=C(NCc1c(F)cc(F)cc1F)c1cn2c(c(O)c1=O)C(=O)N1CCc3cc(Cl)ccc3[C@@H]2C1` [Example 136-2, (13R)-10-chloro-4-hydroxy-3,5-dioxo-N-(2,4,6-trifluorobenzyl)-3,5,8,13-tetrahydro-7H-6,13-methanobenzo[g]pyrido[1,2-a][1,4]diazonine-2-carboxamide] are 1.55 nM, 5.71 nM, 0.392 nM and 6550 nM.
Turning to `C[C@@H]1CCC[C@H]2CN1C(=O)c1c(O)c(=O)c(C(=O)NCc3ccc(F)cc3F)cn12` [Example 52-1, (3R, 7S)—N-(2,4-difluorobenzyl)-12-hydroxy-3-methyl-1,11-dioxo-1,4,5,6,7,11-hexahydro-3H-2,7-methanopyrido[1,2-a][1,4]diazonine-10-carboxamide], the EC50 is 2.15 nM in the series on HIV-1 (IIIB), 6.18 nM in the series with pLai RLuc reporter virus (setting [2]) and 0.245 nM in the series on pLai RLuc reporter virus (setting [3]). The CC50 at 5 days in series [1] was determined as 13100 nM.
Regarding `O=C(NCc1c(F)cc(F)cc1F)c1cn2c(c(O)c1=O)C(=O)N1CCC=C[C@H]2C1` [Example 109-2, (7S)-12-hydroxy-1,11-dioxo-N-(2,4,6-trifluorobenzyl)-1,4,7,11-tetrahydro-3H-2,7-methanopyrido[1,2-a][1,4]diazonine-10-carboxamide], the EC50 in the series on HIV-1 (IIIB) came out at 1.47 nM; in the series on pLai RLuc reporter virus (setting [2]), 4.34 nM; with pLai RLuc reporter virus (setting [3]) it was 0.236 nM. In series [1], the CC50 at 5 days turned out to be 11800 nM.
In the same order, the values of `C[C@@]1(F)CCCN2C[C@@H]1n1cc(C(=O)NCc3c(F)cc(F)cc3F)c(=O)c(O)c1C2=O` [Example 61-2, (6R, 7S)-6-fluoro-12-hydroxy-6-methyl-1,11-dioxo-N-(2,4,6-trifluorobenzyl)-1,4,5,6,7,11-hexahydro-3H-2,7-methanopyrido[1,2-a][1,4]diazonine-10-carboxamide] are 2.51 nM, 13.8 nM, 0.142 nM and 16900 nM.
Taken in the same sequence, the figures for `C[C@]1(F)CCCN2C[C@@H]1n1cc(C(=O)NCc3c(F)cc(F)cc3F)c(=O)c(O)c1C2=O` [Example 61-1, (6S, 7S)-6-fluoro-12-hydroxy-6-methyl-1,11-dioxo-N-(2,4,6-trifluorobenzyl)-1,4,5,6,7,11-hexahydro-3H-2,7-methanopyrido[1,2-a][1,4]diazonine-10-carboxamide] were 1.85 nM, 72 nM, 0.206 nM and 10300 nM.
`O=C(NCc1c(F)cc(F)cc1F)c1cn2c(c(O)c1=O)C(=O)N1CC=CC[C@H]2C1` [Example 101, (7S)-12-hydroxy-1,11-dioxo-N-(2,4,6-trifluorobenzyl)-1,6,7,11-tetrahydro-3H-2,7-methanopyrido[1,2-a][1,4]diazonine-10-carboxamide]: the EC50 in the series on HIV-1 (IIIB) was 1.52 nM; with pLai RLuc reporter virus (setting [2]), 1.62 nM; with pLai RLuc reporter virus (setting [3]) it was 0.22 nM. Further, in series [1], the CC50 at 5 days is 19500 nM.
Consider `O=C(NCc1c(F)cc(F)cc1F)c1cn2c(c(O)c1=O)C(=O)N1C[C@@H]2CCC[C@@H]1C(F)F` [Example 131, (3R, 7S)-3-(difluoromethyl)-12-hydroxy-1,11-dioxo-N-(2,4,6-trifluorobenzyl)-1,4,5,6,7,11-hexahydro-3H-2,7-methanopyrido[1,2-a][1,4]diazonine-10-carboxamide], for which the EC50 in the series on HIV-1 (IIIB) amounted to 1.68 nM; with pLai RLuc reporter virus (setting [2]) it was 11 nM; in the series on pLai RLuc reporter virus (setting [3]), 0.25 nM. For the same molecule, in series [1], the CC50 at 5 days stood at 10200 nM.
For the molecule `O=C(NCc1c(F)cc(F)cc1F)c1cn2c(c(O)c1=O)C(=O)N1CCCC[C@@H]2C1` [Example 26-1, (7R)-12-hydroxy-1,11-dioxo-N-(2,4,6-trifluorobenzyl)-1,4,5,6,7,11-hexahydro-3H-2,7-methanopyrido[1,2-a][1,4]diazonine-10-carboxamide], the results for the EC50 in the series on HIV-1 (IIIB), in the series with pLai RLuc reporter virus (setting [2]) and with pLai RLuc reporter virus (setting [3]) were 1.4 nM, 33.4 nM and 0.354 nM, respectively. Further, the CC50 at 5 days in series [1] was determined as 15900 nM.
Taken in the same sequence, the figures for `C[C@]12CCCCN(C1)C(=O)c1c(O)c(=O)c(C(=O)NCc3c(F)cc(F)cc3F)cn12` [Example 59-1, (7S)-12-hydroxy-7-methyl-1,11-dioxo-N-(2,4,6-trifluorobenzyl)-1,4,5,6,7,11-hexahydro-3H-2,7-methanopyrido[1,2-a][1,4]diazonine-10-carboxamide] were 1.53 nM, 26.4 nM, 0.361 nM and 15000 nM.
Take `O=C(NCc1ccc(F)c(F)c1F)c1cn2c(c(O)c1=O)C(=O)N1CCCC[C@H]2C1` [Example 161, (7S)-12-hydroxy-1,11-dioxo-N-(2,3,4-trifluorobenzyl)-1,4,5,6,7,11-hexahydro-3H-2,7-methanopyrido[1,2-a][1,4]diazonine-10-carboxamide]: the values for the EC50 with HIV-1 (IIIB), in the series with pLai RLuc reporter virus (setting [2]) and in the series on pLai RLuc reporter virus (setting [3]) were 2.1 nM, 1.01 nM and 0.3 nM, respectively. The cytotoxic concentration (CC50) at 5 days in series [1] was found to be 4630 nM.
Consider `O=C(NCc1ccc(F)cc1F)c1cn2c(c(O)c1=O)C(=O)N1C[C@@H](F)CC[C@@H]2C1` (single isomer, unassigned) [Example 53-3], for which the EC50 in the series on HIV-1 (IIIB) was 1.94 nM; in the series on pLai RLuc reporter virus (setting [2]), 75.2 nM; in the series on pLai RLuc reporter virus (setting [3]), 0.223 nM. Besides, the CC50 at 5 days in series [1] worked out at 11200 nM.
Consider `O=C(NCc1c(F)cc(F)cc1F)c1cn2c(c(O)c1=O)C(=O)N1CCC=C[C@@H]2C1` [Example 109-1, (7R)-12-hydroxy-1,11-dioxo-N-(2,4,6-trifluorobenzyl)-1,4,7,11-tetrahydro-3H-2,7-methanopyrido[1,2-a][1,4]diazonine-10-carboxamide], for which the EC50 in the series on HIV-1 (IIIB) is 1.81 nM; in the series with pLai RLuc reporter virus (setting [2]), 50.8 nM; in the series on pLai RLuc reporter virus (setting [3]) it was 0.527 nM. Besides, the half-maximal cytotoxic concentration (CC50) at 5 days in series [1] came out at 11300 nM.
